Laboratory results from publication PMC6588697, “Lugdunin amplifies innate immune responses in the skin in synergy with host- and microbiota-derived factors” (Nature Communications, 2019).
No end group written: not given here.

System: S. aureus USA300
Assay: Antimicrobial testing (bactericidal, CFU) against S. aureus USA300
Format: cell-based, Staphylococcus aureus
Details: for S. aureus USA300 CFU normalized to untreated control (1.00): 3 h, mean of at least three experiments
Method: Fig. 5 Synergistic action of lugdunin and human antimicrobial peptides (AMPs) kills methicillin-resistant S. aureus (MRSA). a, c Logarithmically grown (3 × 10^6) S. aureus were incubated with indicated combinations of lugdunin and human AMPs in phosphate-buffered saline (PBS) containing 0.1% tryptic soy broth (TSB) at 37 °C orbital shaking (white bar, untreated; dark gray bars, AMP treatment; middle gray bars, lugdunin treatment; light gray bars, AMP and lugdunin combination treatment). After 3 h of incubation, several dilutions of the bacterial suspensions were plated onto TSB agar plates and incubated overnight at 37 °C. The next day S. aureus colony-forming units (CFUs) were counted. Each experiment was performed in triplicates. Data represent the percentage of CFU of at least three independent experiments normalized to the untreated control ± s.e.m. Significant differences to control treatments were analyzed by ordinary one-way analysis of variance (ANOVA) followed by Dunnett’s multiple comparisons test (*P < 0.05; **P < 0.01; ***P < 0.001; ****P < 0.0001). b Combination indices (CIs) were calculated using CompuSyn (ComboSyn Inc.) and indicated in median effect plots as a function of the bacteria fractions affected by the combinatorial peptide treatment. CI values of 1 indicate additive effects, whereas values <1 and >1 indicate synergistic and antagonistic effects, respectively. Source data are provided as a Source Data file TEXT PRINTED IN THE PICTURE: (a) DCD-1: S. aureus USA300, Lugdunin μM 0: 1.00 (DCD-1 μM: 0); S. aureus USA300, Lugdunin μM 1: 1.08 (DCD-1 μM: 0); S. aureus USA300, Lugdunin μM 2: 1.11 (DCD-1 μM: 0); S. aureus USA300, Lugdunin μM 3: 0.97 (DCD-1 μM: 0); S. aureus USA300, Lugdunin μM 0: 1.06 (DCD-1 μM: 1); S. aureus USA300, Lugdunin μM 1: 0.91 (DCD-1 μM: 1); S. aureus USA300, Lugdunin μM 2: 0.85 (DCD-1 μM: 1); S. aureus USA300, Lugdunin μM 3: 0.60 (DCD-1 μM: 1); S. aureus USA300, Lugdunin μM 0: 1.19 (DCD-1 μM: 2); S. aureus USA300, Lugdunin μM 1: 0.84 (DCD-1 μM: 2); S. aureus USA300, Lugdunin μM 2: 0.43 (DCD-1 μM: 2); S. aureus USA300, Lugdunin μM 3: 0.21 (DCD-1 μM: 2) | (a) DCD-1L: S. aureus USA300, Lugdunin μM 0: 1.00 (DCD-1L μM: 0); S. aureus USA300, Lugdunin μM 1: 1.08 (DCD-1L μM: 0); S. aureus USA300, Lugdunin μM 2: 1.11 (DCD-1L μM: 0); S. aureus USA300, Lugdunin μM 3: 0.97 (DCD-1L μM: 0); S. aureus USA300, Lugdunin μM 0: 1.13 (DCD-1L μM: 1); S. aureus USA300, Lugdunin μM 1: 0.98 (DCD-1L μM: 1); S. aureus USA300, Lugdunin μM 2: 0.68 (DCD-1L μM: 1); S. aureus USA300, Lugdunin μM 3: 0.07 (DCD-1L μM: 1); S. aureus USA300, Lugdunin μM 0: 1.37 (DCD-1L μM: 2); S. aureus USA300, Lugdunin μM 1: 0.60 (DCD-1L μM: 2); S. aureus USA300, Lugdunin μM 2: 0.42 (DCD-1L μM: 2); S. aureus USA300, Lugdunin μM 3: 0.02 (DCD-1L μM: 2) | (a) IL-37: S. aureus USA300, Lugdunin μM 0: 1.00 (IL-37 μM: 0); S. aureus USA300, Lugdunin μM 1: 1.08 (IL-37 μM: 0); S. aureus USA300, Lugdunin μM 2: 1.11 (IL-37 μM: 0); S. aureus USA300, Lugdunin μM 3: 0.97 (IL-37 μM: 0); S. aureus USA300, Lugdunin μM 0: 1.86 (IL-37 μM: 1); S. aureus USA300, Lugdunin μM 1: 1.27 (IL-37 μM: 1); S. aureus USA300, Lugdunin μM 2: 1.23 (IL-37 μM: 1); S. aureus USA300, Lugdunin μM 3: 1.90 (IL-37 μM: 1); S. aureus USA300, Lugdunin μM 0: 2.49 (IL-37 μM: 2); S. aureus USA300, Lugdunin μM 1: 1.28 (IL-37 μM: 2); S. aureus USA300, Lugdunin μM 2: 0.89 (IL-37 μM: 2); S. aureus USA300, Lugdunin μM 3: 0.38 (IL-37 μM: 2) DOUBTS OF THE COPYIST ABOUT THIS PICTURE: Panel a, third matrix: the row label reads IL-37, but it may be LL-37, as printed in panels b and c. / Panel a: the picture prints no measure for the matrix numbers, only the colour scale 'Growth – Killing, S. aureus USA300'. Each cell is a combination of Lugdunin (column, μM) with the peptide (row, μM). / Panel a: rows and columns at 0 μM are a single agent or the untreated control. […]

[1] = single peptide 0.4 µM, PBS + 0.1% TSB, 37 °C

Row | Substance | S. aureus USA300 CFU normalized to untreated control (1.00) [1] | S. aureus USA300 CFU normalized to untreated control (1.00) (single peptide 0.6 µM) | S. aureus USA300 CFU normalized to untreated control (1.00) (single peptide 0.8 µM) | S. aureus USA300 CFU normalized to untreated control (1.00) (single peptide 1 µM) | S. aureus USA300 CFU normalized to untreated control (1.00) (single peptide 2 µM) | antimicrobial activity on co-incubation with human AMPs (in words) (S. aureus USA300, text to Supp Figs 5, 6)
1 | IASKFLCTPGCAKTGSFNSYCC (also: bicyclic or more (positions not given here)) [Gallidermin, bacteriocin isolated from Staphylococcus gallinarum] | 0,84 | 0,91 | 0,74 |  |  | 
2 | ITSISLCTPGCKTGALMGCNMKTATCHCSIHVSK (not fully specified (bridges); also: lanthionine rings, places not given here) [Nisin, bacteriocin of Lactococcus lactis, purchased from Sigma] | 1,31 | 1,49 | 1,49 |  |  | 
3 | LLGDFFRKSKEKIGKEFKRIVQRIKDFLRNLVPRTES [LL-37, human cathelicidin AMP] |  |  |  | 1,86 | 2,49 | 
4 | Lugdunin |  |  |  | 1,08 | 1,11 | 
5 | MEAVKEKNELFDLDVKVNAKESNDSGAEPRIASKFLCTPGCAKTGSFNSYCC [Pro-Gallidermin, non-bactericidal pro-form of gallidermin] | 1,34 | 1,61 | 1,30 |  |  | did not lead to antimicrobial activity
6 | SSLLEKGLDGAKKAVGGLGKLGKDAVEDLESVGKGAVHDVKDVLDSV [DCD-1, dermcidin-derived human AMP of eccrine sweat glands] |  |  |  | 1,06 | 1,19 | 
7 | SSLLEKGLDGAKKAVGGLGKLGKDAVEDLESVGKGAVHDVKDVLDSVL [DCD-1L, dermcidin-derived human AMP of eccrine sweat glands] |  |  |  | 1,13 |  | 
